From the supplement of paper PMC5844555

How the values were obtained:
Assay in all cases: 3' UTR reporter interaction score (median-centred robust z-score of log2 firefly/Renilla activity); higher = less repression of the 3' UTR reporter
Conditions in all cases: HEK293T; 48 h
MYB = tested on: MYB
Outline: (§1)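 Using DharmaFECT Duo, HEK293T cells (10,000/well, 96-well plates) were co-transfected with 2.5 pmol miRNA mimic, 100 ng firefly luc2P reporter containing the gene's 3' UTR and 20 ng Renilla pRL-TK control, and dual-luciferase activity was read 48 h later. The interaction score is the log firefly/Renilla ratio as a per-plate robust z-score (median, median absolute deviation), median-centred per miRNA, averaged over at least two independent screens; lower, more negative values indicate interaction.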

PHF6 = tested on: PHF6
Outline: as §1

EZH2 = tested on: EZH2
Outline: as §1

HRAS = tested on: HRAS
Outline: as §1

TP53 = tested on: TP53
Outline: as §1

MYT1L = tested on: MYT1L
Outline: as §1

BRCA2 = tested on: BRCA2
Outline: as §1

FBXW7 = tested on: FBXW7
Outline: as §1

PHOX2B = tested on: PHOX2B
Outline: as §1

MYC = tested on: MYC
Outline: as §1

RB1 = tested on: RB1
Outline: as §1

MYCN = tested on: MYCN
Outline: as §1

NOTCH1 = tested on: NOTCH1
Outline: as §1

ZEB2 = tested on: ZEB2
Outline: as §1

Sequence	3' UTR reporter interaction score (MYB)	3' UTR reporter interaction score (PHF6)	3' UTR reporter interaction score (EZH2)	3' UTR reporter interaction score (HRAS)	3' UTR reporter interaction score (TP53)	3' UTR reporter interaction score (MYT1L)	3' UTR reporter interaction score (BRCA2)	3' UTR reporter interaction score (FBXW7)	3' UTR reporter interaction score (PHOX2B)	3' UTR reporter interaction score (MYC)	3' UTR reporter interaction score (RB1)	3' UTR reporter interaction score (MYCN)	3' UTR reporter interaction score (NOTCH1)	3' UTR reporter interaction score (ZEB2)
GUGCAUUGCUGUUGCAUUGCA	-2.09	-0.271	0.0384	-0.237	0.631	0.516	-0.52	-0.35	0.67	-1.33	-0.687	0.79	0.367	-2.34
GUGCAUUGUAGUUGCAUUG	0.56	-0.0198	-0.326	-0.432	0.444	-0.399	-0.383	0.387	1.4	-0.88	-0.339	-0.218	0.471	-0.884
GUGCCGCCAUCUUUUGAGUGU	0.102	1.8	1.03	-0.278	0.183	-0.378	-0.313	-3.5	-0.654	1.02	0.47	0.415	-0.278	-1.72
GUGCCUACUGAGCUGAUAUCAGU	0.61	-1.31	0.242	-0.972	0.396	-1.1	0.244	0.26	1.18	0.239	0.454	0.559	-1.95	-0.6
GUGGCUGCACUCACUUCCUUC	0.056	1.53	0.166	-0.434	-1.37	1.48	-1.87	0.899	-0.165	0.00108	1.44	1.8	0.486	-0.491
GUGUCUGCUUCCUGUGGGA	-0.0781	0.326	-0.0979	-2.48	0.286	0.553	0.42	0.999	-0.344	-0.0744	-0.362	-0.382	-0.363	0.24
GUGUCUUUUGCUCUGCAGUCA	-0.175	-0.433	1.94	2.01	0.375	0.207	-0.493	-1.58	-2.8	1.06	0.189	0.0597	-1.08	-1.45
GUGUGUGGAAAUGCUUCUGC	1.87	1.54	1.67	0.713	-0.707	-1.13	-2.78	-0.236	-1.13	-0.259	1.07	1.7	-0.133	-1.28
GUUCAAAUCCAGAUCUAUAAC	-0.548	-0.553	-0.256	-0.14	0.149	-0.972	0.0735	1.03	1.14	-0.205	-0.538	-0.012	-0.33	0.383
GUUCUCCCAACGUAAGCCCAGC	-4.37	0.685	0.22	0.00988	0.732	0.882	-0.8	1.08	1.74	-0.299	-0.277	0.962	-0.479	-0.194
GUUGGAGGAUGAAAGUACGGAGUGAU	0.331	0.571	0.25	-0.155	-1.24	-0.433	-1.61	1.07	1.82	-0.154	0.55	0.4	-0.207	0.0694
GUUGUGUCAGUUUAUCAAAC	0.442	-1.91	0.353	0.822	0.224	-0.86	-0.269	-0.0228	-0.364	0.0323	-1.51	0.0505	-0.822	-0.154
GUUUGCACGGGUGGGCCUUGUCU	-0.536	0.29	-0.233	-1.1	-0.225	2.21	0.0623	-0.619	0.0301	-0.328	-0.0813	1.09	0.297	-1.23
UAAACGUGGAUGUACUUGCUUU	-0.172	-1.71	0.463	-0.799	0.196	-0.58	0.489	0.998	-0.628	-1.34	0.153	-0.319	0.553	0.846
UAAAGCUAGAUAACCGAAAGU	0.558	-0.609	0.346	0.407	0.374	-1.97	1.05	-0.801	0.965	0.416	0.722	-1.46	1.01	-0.694
UAAAGUAAAUAUGCACCAAAA	-0.21	-0.814	0.367	0.372	0.703	-0.0291	-0.0915	-0.197	1.69	0.043	-0.322	-0.59	0.429	-0.265
UAAAGUGCUGACAGUGCAGAU	-0.631	0.442	-0.906	0.312	-0.0101	-2.37	0.319	-0.356	0.0581	0.528	-0.838	-0.735	0.373	0.619
UAAAUCCCAUGGUGCCUUCUCCU	-0.131	1.14	0.24	-0.598	0.00864	-0.319	0.0242	-0.794	0.298	0.0891	0.989	1.04	0.16	-0.698
UAACACUGUCUGGUAAAGAUGG	0.229	-1.93	-0.173	0.0521	0.617	-4.79	-0.392	-0.104	-0.774	0.0647	0.257	0.21	-0.447	-7.02
